# Patent US6875758B2, “Method of treating hyperlipidemic and hyperglycemic conditions in mammals using pregnadienols and pregnadienones” (Council of Scientific & Industrial Research, priority 1999, dated 2005)
# Experiments:
# [1] = tested on: Triton treated rats; test: Cholesterol lowering in Triton treated rats; format: in vivo, Charles Foster rats
# From the text: The primary hypolipidemic effect of these compounds was established in triton induced hyperlipidemia in Charles Foster rats. […] The cholesterol lowering effect of some representative compounds of pregrenadienols and pregrenadienones as compared to clofibrate and gugulsterone in triton treated Charles Foster rats is described in Table-2.
# [2] = tested on: Human serum LDL; test: Cu2+ induced oxidation of low density lipoprotein (TBA reactive lipid peroxides); format: biochemical; settings: for MDA (Exp.): 16 hr at 37° C., pH 7.4; for generation of LDL lipid peroxide (in words): tested concentrations
# Description: Human serum LDL was oxidized with Cu^′2 in different concentrations of test compound in 0.05 mole PBS, pH 7.4 for 16 hr at 37° C. Thiobarbituric acid reactive lipid peroxides are measured by standard procedure. […] Cu^′2 induced oxidation in LDL lipids are mainly due to the free OH radical during incubation.
# [3] = Hydroxy (OH) radical formation in nonenzymatic system (Fe2+, ascorbate, H2O2, deoxyribose); format: biochemical
# [4] = tested on: glucose loaded rats; test: Hypoglycemic activity in glucose loaded rats; format: in vivo, albino rats (Charles Foster strain); settings: for Blood Glucose Level: 100 mg/kg p.o. + glucose 2.0 g/kg; for % inhibition compared to control (blood glucose): 100 mg/kg
# Description: The experiments were carried out with albino rats (Charles Foster strain) of either sex weighing 150-160 g. They were fed on laboratory diet prepared by M/s Lipton India Ltd. and maintained under 12 hr. light/dark cycle at 25±2° C.
# The animals were divided into eight groups, each of six rats; group I was given 1% gum acacia (0.1 ml/100 g body weight) intragastrically (p.o.) and the group II were given 3β-hydroxypregna-5,16-dien-20-one (2) in 1% gum acacia. Animals of group III were given the standard antidiabetic drug, tolbutamide in the similar fashion. 2.0 g/kg glucose was given p.o. to all the rats along with the vehicle/Compound/Standard antidiabetic drug. Blood samples were taken from retroorbital plexus at periodic intervals. Glucose levels in the blood samples were measured by glucose oxidase method [Bergmeyer and Benut, 1963 cited in “Methods of Enzymatic Analysis” ed. H. Bergmeyer, Verlag Chemie, GmBH, Weinheim, Beroster, pp123, Academic press, New York].
# [5] = tested on: streptozotocin induced diabetic rats; test: Hypoglycemic activity in streptozotocin induced hyperglycemic rats; format: in vivo; settings: 100 mg/kg p.o.
# Description: Hyperglycemia in rats was produced by streptozotocin treatment. The animals showing blood glucose levels between 250-350 mg/dl were selected. Blood samples were collected after treatment at intervals and blood glucose levels were estimated immediately.
# [6] = tested on: cholesterol fed hyperlipidemic rats; test: Lipid peroxidation in cholesterol fed hyperlipidemic rats; format: in vivo
# [7] = tested on: isoproterneol induced myocardial necrosis in rat; test: Isoproterneol induced myocardial necrosis in rats; format: in vivo; settings: isoproterneol 85 mg/kg + drug 25 mg/kg p.o.
# From the text: The underlying cause of myocardial infarction is believed to be the progressive deposition of lipids and fibrotic material into the arterial wall. These pregnadienols and pregnadienous also provided cardiac protection as assessed in isoproterneol induced myocardial necrosis in rat model, which produces myocardial infarction due to an increased blood pressure and heart rate.
# [8] = tested on: normal rats; test: Hypolipidemic activity in normal rats; format: in vivo; settings: 50 mg/kg
# Description: In normal rats, 3β-hydroxypregna-5,16-dien-20one (2), at 50 mg/kg produced a significant lowering of serum cholesterol and triglycerides as describe in Table-3 below.
# [9] = Rattus norvegicus, ip, 50 mg/kg i.p., read-out: % Change S. Chol.
smiles,measurement,setting,value
"C/C=C1/C(O)CC2C3CC=C4CC(O)CC[C@]4(C)C3CC[C@]12C (stereo partly drawn) [Compound 8, 5,17(20)-Dienpregna-3,16-diol]",change in vivo at 50 mg/kg,[1]; [9],-31%
Cc1c(C)c2c(c(C)c1O)CC[C@@](C)(CCC[C@H](C)CCC[C@H](C)CCCC(C)C)O2 [α-Tocopherol],% inhibition of LDL oxidation,[2]; 0.25 μmol/ml,(3) %
same,MDA (Exp.),[2]; 0.25 μmol/ml,44.7 ± 4.5 n mol MDA/mg protein
same,% inhibition of LDL oxidation,[2]; 0.5 μmol/ml,(13) %
same,MDA (Exp.),[2]; 0.5 μmol/ml,41.6 ± 4.0 n mol MDA/mg protein
same,MDA (Exp.),[2]; 1.0 μmol/ml,35.0 ± 3.8 n mol MDA/mg protein
same,% inhibition of LDL oxidation,[2]; 2.0 μmol/ml,(51) %
same,MDA (Exp.),[2]; 2.0 μmol/ml,24.3 ± 2.0 n mol MDA/mg protein
same,generation of LDL lipid peroxide (in words),[2],inhibit the generation of LDL lipid peroxide in concentration dependent manner
same,% inhibition of OH radical formation,[3]; 1 μmol/ml,(23) %
same,OH radical formation,[3]; 1 μmol/ml,60.4 ± 7.0 nmol MDA/hr
same,% inhibition of OH radical formation,[3]; 2 μmol/ml,(42) %
same,OH radical formation,[3]; 2 μmol/ml,45.2 ± 3.3 nmol MDA/hr
same,% inhibition of OH radical formation,[3]; 3 μmol/ml,(59) %
same,OH radical formation,[3]; 3 μmol/ml,32.4 ± 3.5 nmol MDA/hr
same,% inhibition of OH radical formation,[3]; 4 μmol/ml,(65) %
same,OH radical formation,[3]; 4 μmol/ml,27.1 ± 2.8 nmol MDA/hr
same,% inhibition of OH radical formation,[3]; 5 μmol/ml,(73) %
same,OH radical formation,[3]; 5 μmol/ml,20.9 ± 2.0 nmol MDA/hr
"CCCCNC(=O)NS(=O)(=O)c1ccc(C)cc1 [Tolbutamide, reference compound]",Maximum Blood Glucose Change,[4]; 100 mg/kg p.o. + glucose,−41.7%
same,Blood Glucose Level,[4]; 0 min,38.15 ± 2.02 mg/dL
same,Blood Glucose Level,[4]; 30 min,76.31 ± 6.29 mg/dL
same,Blood Glucose Level,[4]; 60 min,27.26 ± 3.1 mg/dL
same,Blood Glucose Level,[4]; 90 min,24.64 ± 1.92 mg/dL
same,Blood Glucose Level,[4]; 120 min,23.07 ± 3.11 mg/dL
same,% inhibition compared to control (blood glucose),[4]; 30 min,(35) %
same,% inhibition compared to control (blood glucose),[4]; 60 min,(100) %
same,% inhibition compared to control (blood glucose),[4]; 90 min,(100) %
same,% inhibition compared to control (blood glucose),[4]; 120 min,(100) %
same,Blood Glucose Level,[5]; 0 hr,292 ± 10 mg/dL
same,% lowering from zero hour value (blood glucose),[5]; 1 hr,(25.3) %
same,% lowering from zero hour value (blood glucose),[5]; 2 hr,(29.1) %
same,% lowering from zero hour value (blood glucose),[5]; 3 hr,(30.8) %
same,% lowering from zero hour value (blood glucose),[5]; 4 hr,(33.2) %
same,% lowering from zero hour value (blood glucose),[5]; 5 hr,(37.3) %
same,% lowering from zero hour value (blood glucose),[5]; 6 hr,(40.4) %
same,% lowering from zero hour value (blood glucose),[5]; 7 hr,(34.2) %
same,% lowering from zero hour value (blood glucose),[5]; 8 hr,(17.1) %
same,Blood Glucose Level,[5]; 24 hr,332 ± 26 mg/dL
"CC(=O)O[C@H]1CC[C@@]2(C)C(=CC[C@@H]3[C@@H]2CC[C@]2(C)C(C(C)=O)=CC[C@@H]32)C1 [Compound 1, 3β-Acetoxypregna-5,16-dien-20-one]",change in vivo at 50 mg/kg,[1]; [9],-43%
"Cc1ccc(C)c(OCCCC(C)(C)C(=O)O)c1 [Gemfibrozil, reference compound]",HDL lipid peroxides,[6]; cholesterol + drug 25 mg/kg,134 ± 13 n mol MDA/dl
same,HDL lipid peroxides % reversal as compared with cholesterol fed rats,[6]; cholesterol + drug 25 mg/kg,(−3) %
same,LDL lipid peroxides,[6]; cholesterol + drug 25 mg/kg,568 ± 62 n mol MDA/dl
same,LDL lipid peroxides % reversal as compared with cholesterol fed rats,[6]; cholesterol + drug 25 mg/kg,(−6) %
same,Liver lipid peroxides,[6]; cholesterol + drug 25 mg/kg,253 ± 26 n mol MDA/g
same,Liver lipid peroxides % reversal as compared with cholesterol fed rats,[6]; cholesterol + drug 25 mg/kg,(−8) %
same,Serum lipid peroxides,[6]; cholesterol + drug 25 mg/kg,1161 ± 74 n mol MDA/dl
same,Serum lipid peroxides % reversal as compared with cholesterol fed rats,[6]; cholesterol + drug 25 mg/kg,(−5) %
same,VLDL lipid peroxides,[6]; cholesterol + drug 25 mg/kg,346 ± 10 n mol MDA/dl
same,VLDL lipid peroxides % reversal as compared with cholesterol fed rats,[6]; cholesterol + drug 25 mg/kg,(−9) %
same,"lipid peroxide levels in serum VLDL, LDL and liver (in words)","[6]; cholesterol fed animals, simultaneous treatment",failed to protect
same,MDA (Exp.),[2]; 2.5 μmol/ml,53.0 ± 6.0 n mol MDA/mg protein
same,% inhibition of LDL oxidation,[2]; 5.0 μmol/ml,(5) %
same,MDA (Exp.),[2]; 5.0 μmol/ml,48.8 ± 6.7 n mol MDA/mg protein
same,MDA (Exp.),[2]; 10.0 μmol/ml,43.8 ± 4.9 n mol MDA/mg protein
same,% inhibition of LDL oxidation,[2]; 20 μmol/ml,(16) %
same,MDA (Exp.),[2]; 20 μmol/ml,41.4 ± 5.0 n mol MDA/mg protein
same,generation of LDL lipid peroxide (in words),[2],did not inhibit
same,% inhibition of OH radical formation,[3]; 5 μmol/ml,(4) %
same,OH radical formation,[3]; 5 μmol/ml,79.9 ± 6.8 nmol MDA/hr
same,% inhibition of OH radical formation,[3]; 10 μmol/ml,(5) %
same,OH radical formation,[3]; 10 μmol/ml,78.5 ± 8.0 nmol MDA/hr
same,% inhibition of OH radical formation,[3]; 20 μmol/ml,(8) %
same,OH radical formation,[3]; 20 μmol/ml,76.8 ± 7.4 nmol MDA/hr
same,% inhibition of OH radical formation,[3]; 30 μmol/ml,(8) %
same,OH radical formation,[3]; 30 μmol/ml,76.4 ± 3.8 nmol MDA/hr
same,% inhibition of OH radical formation,[3]; 40 μmol/ml,(11) %
same,OH radical formation,[3]; 40 μmol/ml,74.3 ± 6.3 nmol MDA/hr
same,% inhibition of OH radical formation,[3]; 50 μmol/ml,(13) %
same,OH radical formation,[3]; 50 μmol/ml,72.4 ± 8.0 nmol MDA/hr
same,Heart Ca. - ATPase % Protection,[7],30.2%
same,Heart Glycogen % Protection,[7],32.1%
same,Heart Lipid peroxide % Protection,[7],69.8%
same,Heart Phospholipase % Protection,[7],28.2%
same,Serum Alkaline Phosphatase % Protection,[7],41.2%
same,Serum CPK % Protection,[7],33.9%
same,Serum GOT % Protection,[7],24.9%
same,Serum GPT % Protection,[7],33.4%
"C/C=C1/C(=O)CC2C3CCC4=CC(=O)CC[C@]4(C)C3CC[C@]12C (stereo partly drawn) [Compound 9, Gugulsterone, reference compound]",change in vivo at 50 mg/kg,[1]; [9],-44%
"CC(=O)C1=CCC2C3CCC4=CC(=O)CC[C@]4(C)C3CC[C@]12C (stereo partly drawn) [Compound 3, 4,16-Dienpregna-3,20-dione]",change in vivo at 50 mg/kg,[1]; [9],-13%
"CC(=O)[C@H]1CC[C@H]2[C@@H]3CC=C4C[C@@H](O)CC[C@]4(C)[C@H]3CC[C@]12C [Compound 5, 3β-Hydroxypregna-5-en-20-one]",change in vivo at 100 mg/kg,"[1]; Rattus norvegicus, ip, 100 mg/kg i.p., read-out: % Change S. Chol.",-9%
"CC=C1C(OC(C)=O)C[C@H]2[C@@H]3CC=C4CC(OC(C)=O)CC[C@]4(C)[C@H]3CC[C@]12C (stereo partly drawn) [Compound 7, 5,17(20)-Dienpregna-3,16-diol-diacetate]",% Change S. Chol.,[1]; 50 mg/kg i.p.,−33%
"CC(O)C1=CCC2C3CC=C4CC(O)CC[C@]4(C)C3CC[C@]12C (stereo partly drawn) [Compound 6, 5,16-Dien-pregnane-3,20-diol]",change in vivo at 50 mg/kg,[1]; [9],-10%
"CCOC(=O)C(C)(C)Oc1ccc(Cl)cc1 [Compound 10, Clofibrate, reference compound]",change in vivo at 200 mg/kg,"[1]; Rattus norvegicus, ip, 200 mg/kg i.p., read-out: % Change S. Chol.",-15%
same,Serum Cholesterol,[8]; 0 Days,82.3 ± 3.3 mg %
same,Serum Cholesterol,[8]; 30 Days,53.2 ± 2.0 mg %
same,Serum Cholesterol % Fall,[8]; 30 Days,36%
same,Serum Triglycerides,[8]; 30 Days,47.3 ± 3.2 mg %
same,Serum Triglycerides % Fall compared to control,[8]; 30 Days,28%
"CC(=O)O[C@H]1CC[C@@]2(C)C(=CC[C@H]3[C@@H]4CC[C@H](C(C)=O)[C@@]4(C)CC[C@@H]32)C1 [Compound 4, 3β-Aceoxypregna-5-en-20-one]",% Change S. Chol.,[1]; 100 mg/kg i.p.,−12%
